Data from article PMC6934184, “Selective DNA-PKcs inhibition extends the therapeutic index of localized radiotherapy and chemotherapy” (The Journal of Clinical Investigation, 2019).

Target: T1, CAMK2D (CaMKII delta) (Homo sapiens, UniProt Q13557)
T1 construct: purchased Thermo Fisher Scientific (Life Technologies) SelectScreen
Assay: SelectScreen Z'LYTE
Format: biochemical
Procedure, shortened: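 NU5455 was profiled across the SelectScreen Broad panel of kinase activity and binding assays. Z'LYTE reactions such as CSF1R ran at apparent Km ATP, while the Adapta CAMK1 assay used ATP listed as 10. Values are given as percent.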

T1 sequence (Q13557 whole entry): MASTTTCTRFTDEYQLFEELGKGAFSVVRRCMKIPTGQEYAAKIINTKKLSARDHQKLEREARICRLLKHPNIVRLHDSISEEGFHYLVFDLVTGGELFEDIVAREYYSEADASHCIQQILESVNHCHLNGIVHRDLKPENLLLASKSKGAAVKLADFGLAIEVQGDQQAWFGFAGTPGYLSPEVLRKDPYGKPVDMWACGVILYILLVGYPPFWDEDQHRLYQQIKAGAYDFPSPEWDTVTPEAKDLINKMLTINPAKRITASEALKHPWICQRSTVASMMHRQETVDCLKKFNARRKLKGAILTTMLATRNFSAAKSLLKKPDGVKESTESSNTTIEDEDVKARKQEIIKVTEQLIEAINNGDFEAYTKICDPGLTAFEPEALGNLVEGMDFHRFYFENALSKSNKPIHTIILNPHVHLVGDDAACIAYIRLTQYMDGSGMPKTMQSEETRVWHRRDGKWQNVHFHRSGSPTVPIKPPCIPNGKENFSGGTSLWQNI

**Q.** How did the inhibition at 1 µM turn out when `CN(C(=O)CN1CCOCC1)c1ccc2sc3c(-c4cccc5c(=O)cc(N6CC7CCC(C6)O7)oc45)cccc3c2c1` [NU5455] was run?
**A.** 9.3%
